For 3 compounds, Ki, Emax and EC50 results are on record in patent US20230265151A1, “GIP/GLP1 CO-AGONIST COMPOUNDS” (priority 2020, published 2023).

The target of experiment [1] is T1, human GLP-1 receptor (hGLP-1R) (Homo sapiens, UniProt P43220).
T1 construct: expressed in transfected cells; crude membranes
Nature of the experiment: [125I]-GLP-1 binding, SPA with membranes of HEK293 cells expressing hGLP-1R. Conditions: human GLP-1R; geometric mean (SEM, n); read-out: Binding Affinity Ki, nM (SEM, n) hGLP-1R.

The next experiment addresses T2, hGIPR (Homo sapiens, UniProt P48546).
T2 construct: expressed in transfected cells
T2 sequence (P48546 22-466): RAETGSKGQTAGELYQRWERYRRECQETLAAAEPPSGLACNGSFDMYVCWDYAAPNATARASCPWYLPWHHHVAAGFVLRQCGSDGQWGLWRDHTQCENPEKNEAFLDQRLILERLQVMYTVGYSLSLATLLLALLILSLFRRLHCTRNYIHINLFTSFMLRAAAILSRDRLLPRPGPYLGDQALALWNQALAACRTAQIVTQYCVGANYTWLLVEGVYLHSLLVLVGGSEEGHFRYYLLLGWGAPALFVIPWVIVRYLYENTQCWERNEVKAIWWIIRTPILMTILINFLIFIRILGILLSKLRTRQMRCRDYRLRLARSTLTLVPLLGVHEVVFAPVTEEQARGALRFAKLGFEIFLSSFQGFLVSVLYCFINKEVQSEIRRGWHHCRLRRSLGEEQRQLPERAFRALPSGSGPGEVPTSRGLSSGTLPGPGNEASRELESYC
Nature of the experiment: Functional cAMP formation (HTRF) in HEK-293 clonal cells expressing hGIPR, 0.1% bovine casein, without or with 1.0% human serum albumin. It is filed as cell-based. Conditions: for Emax: read-out: hGIPR Emax, % ± SEM; for EC50: read-out: hGIPR EC50, nM (SEM, n). In outline: (§1)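 Cells were stimulated with peptide for 30 min at 37° C, then lysed in buffer carrying cAMP-d2 and anti-cAMP Eu3+-cryptate for a competitive HTRF read after at least 60 min at room temperature. The 665/620 nm ratio was converted to nM cAMP against a standard curve.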

In another experiment the target is T3, hGCGR (Homo sapiens, UniProt P47871).
T3 construct: expressed in transfected cells
Nature of the experiment: Functional cAMP formation (HTRF) in HEK-293 clonal cells expressing hGCGR, 0.1% bovine casein, without or with 1.0% human serum albumin. It is filed as cell-based. Conditions: read-out: hGCGR EC50, nM (SEM, n). Put shortly: as §1

For the next experiment, the target named is hGLP-1R (Homo sapiens, UniProt P43220). Nature of the experiment: Functional cAMP formation (HTRF) in HEK-293 clonal cells expressing hGLP-1R, 0.1% bovine casein, without or with 1.0% human serum albumin. It is filed as cell-based. Conditions: 37° C.; for Emax: read-out: hGLP-1R Emax, % ± SEM; for EC50: geometric mean, read-out: hGLP-1R EC50, nM (SEM, n). The arrangement: expressed in transfected cells. Put shortly: as §1

The mark [2] stands for this setting: HEK293, 0.1% bovine casein and 1.0% human serum albumin, 37° C., percent of maximal response to GIP(1-42)NH2.
[3] abbreviates: HEK293, percent of maximal response to GIP(1-42)NH2, 37° C., 0.1% bovine casein, arithmetic mean.
[4] abbreviates: cAMP, incubated at 37° C., 0.1% bovine casein (no human serum albumin), geometric mean.
Where [5] appears, read: 0.1% bovine casein and 1.0% human serum albumin, 37° C., geometric mean.
Setting [6] is: cAMP, 37° C., 0.1% bovine casein (no human serum albumin), geometric mean.
Setting [7] is: cAMP, 37° C., 0.1% bovine casein and 1.0% human serum albumin, geometric mean (SEM, n).

Read-outs that look alike come from different tables or passages of the source. *1 amine or outer side, *2 acyl side, *3 side chain or, on linkers, in order; H or OH if unused. Where a SMILES comes first, the peptide text is derived from it. Side-chain parts run from the residue outwards. [ ]: non-standard residue; d: D form. The star is where a group is joined. αMePhe(2-F) = C[C@](N)(Cc1ccccc1F)C(=O)O; γGlu = O=C(O)[C@H](CCC(=O)[*:2])N[*:1]; C14 diacid = O=C(O)CCCCCCCCCCCCC(=O)*; αMeY = C[C@](N)(Cc1ccc(O)cc1)C(=O)O; 4Pal = N[C@@H](Cc1ccncc1)C(=O)O; αMeL = CC(C)C[C@](C)(N)C(=O)O; Orn = NCCC[C@H](N)C(=O)O; AEEA = NCCOCCOCC(=O)O; Aib = CC(C)(N)C(=O)O

T1 sequence (P43220 24-463): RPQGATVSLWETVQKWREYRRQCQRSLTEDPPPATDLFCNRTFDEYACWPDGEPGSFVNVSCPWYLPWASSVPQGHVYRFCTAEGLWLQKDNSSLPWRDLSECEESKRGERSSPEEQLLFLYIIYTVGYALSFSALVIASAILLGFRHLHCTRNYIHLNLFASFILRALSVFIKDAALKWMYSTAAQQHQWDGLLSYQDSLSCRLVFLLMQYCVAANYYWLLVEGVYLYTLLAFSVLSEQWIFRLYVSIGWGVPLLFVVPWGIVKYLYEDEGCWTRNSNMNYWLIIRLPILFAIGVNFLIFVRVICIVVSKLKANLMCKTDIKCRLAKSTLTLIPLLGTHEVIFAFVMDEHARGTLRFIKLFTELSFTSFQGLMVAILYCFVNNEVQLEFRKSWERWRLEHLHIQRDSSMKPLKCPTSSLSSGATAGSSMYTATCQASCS
hGLP-1R, sequence (P43220 24-463): as above
T3 sequence (P47871 26-477): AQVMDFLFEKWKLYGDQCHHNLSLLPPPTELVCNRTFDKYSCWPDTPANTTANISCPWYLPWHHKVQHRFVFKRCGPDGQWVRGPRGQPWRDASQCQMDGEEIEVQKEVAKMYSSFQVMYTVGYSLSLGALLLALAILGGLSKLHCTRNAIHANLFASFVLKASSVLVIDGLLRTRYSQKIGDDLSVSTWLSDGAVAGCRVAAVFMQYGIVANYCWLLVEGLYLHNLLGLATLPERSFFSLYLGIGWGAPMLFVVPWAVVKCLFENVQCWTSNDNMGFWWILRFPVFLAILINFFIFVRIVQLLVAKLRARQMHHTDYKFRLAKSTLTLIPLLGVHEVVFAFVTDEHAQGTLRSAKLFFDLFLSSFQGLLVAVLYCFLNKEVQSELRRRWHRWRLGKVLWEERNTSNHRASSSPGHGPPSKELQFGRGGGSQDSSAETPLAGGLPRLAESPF

Turning to `CC[C@H](C)[C@H](NC(=O)[C@H](CC(C)C)NC(=O)[C@](C)(Cc1ccc(O)cc1)NC(=O)[C@@H](CCC(=O)O)NC(=O)[C@@H](NC(=O)[C@H](Cc1ccccc1)NC(=O)[C@H](CCC(=O)O)NC(=O)C(C)(C)NC(=O)[C@H](CCC(N)=O)NC(=O)[C@H](C)NC(=O)[C@H](CCCCNC(=O)COCCOCCNC(=O)COCCOCCNC(=O)CC[C@H](NC(=O)CCCCCCCCCCCCC(=O)O)C(=O)O)NC(=O)[C@H](CCCN)NC(=O)[C@H](CC(=O)O)NC(=O)[C@H](CC(C)C)NC(=O)[C@](C)(CC(C)C)NC(=O)[C@@H](NC(=O)[C@](C)(CO)NC(=O)[C@H](Cc1ccc(O)cc1)NC(=O)[C@H](CC(=O)O)NC(=O)[C@H](CO)NC(=O)[C@@H](NC(=O)[C@](C)(Cc1ccccc1F)NC(=O)[C@@H](NC(=O)CNC(=O)[C@H](CCC(=O)O)NC(=O)C(C)(C)NC(=O)[C@@H](N)Cc1ccc(O)cc1)[C@@H](C)O)[C@@H](C)O)[C@@H](C)CC)[C@@H](C)CC)C(=O)N[C@@H](CCC(=O)O)C(=O)NCC(=O)NCC(=O)N[C@@H](CCCCNC(=O)COCCOCCNC(=O)COCCOCCNC(=O)CC[C@H](NC(=O)CCCCCCCCCCCCC(=O)O)C(=O)O)C(=O)N[C@@H](CO)C(=O)N[C@@H](CO)C(=O)NCC(=O)N[C@@H](C)C(=O)N1CCC[C@H]1C(=O)N1CCC[C@H]1C(=O)N1CCC[C@H]1C(=O)N[C@@H](CO)C(N)=O` [Example 49], the Ki in experiment [1] is 1.21 nM. Also, the Emax is 92.4 ± 4.07% at hGIPR (setting [2]); 91 ± 1.7% on hGIPR (setting [3]); 97.3 ± 5.46% at hGLP-1R (HEK293, percent of maximal response to GLP-1(7-36)NH2, 0.1% bovine casein, arithmetic mean). Also, the results for the EC50 on hGIPR (setting [4]), on hGCGR (setting [5]) and on hGCGR (setting [4]) were 0.0205 nM, > 9950 nM and > 9950 nM, respectively.
As to `CC[C@H](C)[C@H](NC(=O)[C@H](CC(C)C)NC(=O)[C@](C)(Cc1ccc(O)cc1)NC(=O)[C@H](CCCCNC(=O)COCCOCCNC(=O)COCCOCCNC(=O)CC[C@H](NC(=O)CCCCCCCCCCCCC(=O)O)C(=O)O)NC(=O)[C@@H](NC(=O)[C@H](Cc1ccccc1)NC(=O)[C@H](CCCN)NC(=O)C(C)(C)NC(=O)[C@H](CCC(N)=O)NC(=O)[C@H](C)NC(=O)[C@H](CCC(N)=O)NC(=O)[C@H](CCCN)NC(=O)[C@H](CC(=O)O)NC(=O)[C@H](CC(C)C)NC(=O)[C@](C)(CC(C)C)NC(=O)CNC(=O)C(C)(C)NC(=O)[C@H](Cc1ccncc1)NC(=O)[C@H](CC(=O)O)NC(=O)[C@H](CO)NC(=O)[C@@H](NC(=O)[C@](C)(Cc1ccccc1F)NC(=O)[C@@H](NC(=O)CNC(=O)[C@H](CCC(=O)O)NC(=O)C(C)(C)NC(=O)[C@@H](N)Cc1ccc(O)cc1)[C@@H](C)O)[C@@H](C)O)[C@@H](C)CC)C(=O)N[C@@H](CCCCNC(=O)COCCOCCNC(=O)COCCOCCNC(=O)CC[C@H](NC(=O)CCCCCCCCCCCCC(=O)O)C(=O)O)C(=O)NCC(=O)NCC(=O)N1CCC[C@H]1C(=O)N[C@@H](CO)C(=O)N[C@@H](CO)C(=O)NCC(=O)N[C@@H](C)C(=O)N1CCC[C@H]1C(=O)N1CCC[C@H]1C(=O)N1CCC[C@H]1C(=O)N[C@@H](CO)C(N)=O` [Example 441] (H-Y[Aib]EGT[αMePhe(2-F)]TSD[4Pal][Aib]G[αMeL]LD[Orn]QAQ[Aib][Orn]FIK([AEEA-AEEA-γGlu-C14 diacid])[αMeY]LIK([AEEA-AEEA-γGlu-C14 diacid])GGPSSGAPPPS-NH2), in experiment [1], the Ki is 0.386 nM. For the same compound, the Emax turned out to be 83.8% on hGIPR (HEK293, cAMP, 37° C., 0.1% bovine casein and 1.0% human serum albumin, percent of maximal response to GIP(1-42)NH2); 97.2% on hGIPR (HEK293, cAMP, 37° C., 0.1% bovine casein, percent of maximal response to GIP(1-42)NH2, arithmetic mean); 111% at hGLP-1R (HEK293, cAMP, 0.1% bovine casein and 1.0% human serum albumin, percent of maximal response to GLP-1(7-36)NH2); 110% on hGLP-1R (HEK293, cAMP, 0.1% bovine casein, percent of maximal response to GLP-1(7-36)NH2, arithmetic mean). Besides, the EC50 at hGIPR (setting [6]) was 0.0174 nM; on hGIPR (setting [7]), 1.38 nM; on hGCGR (setting [6]), > 9950 nM; on hGCGR (setting [7]), > 9950 nM; at hGLP-1R (cAMP, 0.1% bovine casein (no human serum albumin)), 0.134 nM.
As to `CC[C@H](C)[C@H](NC(=O)[C@H](CC(C)C)NC(=O)[C@](C)(Cc1ccc(O)cc1)NC(=O)[C@@H](CCC(=O)O)NC(=O)[C@@H](NC(=O)[C@H](Cc1ccccc1)NC(=O)[C@H](CCC(=O)O)NC(=O)C(C)(C)NC(=O)[C@H](CCC(N)=O)NC(=O)[C@H](C)NC(=O)[C@H](CCCCNC(=O)COCCOCCNC(=O)COCCOCCNC(=O)[C@@H](N)CCCCNC(=O)CCCCCCCCCCCCC(=O)O)NC(=O)[C@H](CCCN)NC(=O)[C@H](CC(=O)O)NC(=O)[C@H](CC(C)C)NC(=O)[C@](C)(CC(C)C)NC(=O)[C@@H](NC(=O)[C@H](CO)NC(=O)[C@H](Cc1ccncc1)NC(=O)[C@H](CC(=O)O)NC(=O)[C@H](CO)NC(=O)[C@@H](NC(=O)[C@](C)(Cc1ccccc1F)NC(=O)[C@@H](NC(=O)CNC(=O)[C@H](CCC(=O)O)NC(=O)C(C)(C)NC(=O)[C@@H](N)Cc1ccc(O)cc1)[C@@H](C)O)[C@@H](C)O)[C@@H](C)CC)[C@@H](C)CC)C(=O)N[C@@H](CCC(=O)O)C(=O)NCC(=O)NCC(=O)N[C@@H](CCCCNC(=O)COCCOCCNC(=O)COCCOCCNC(=O)[C@@H](N)CCCCNC(=O)CCCCCCCCCCCCC(=O)O)C(=O)N[C@@H](CO)C(=O)N[C@@H](CO)C(=O)NCC(=O)N[C@@H](C)C(=O)N1CCC[C@H]1C(=O)N1CCC[C@H]1C(=O)N1CCC[C@H]1C(=O)N[C@@H](CO)C(N)=O` [Example 33], the Ki in experiment [1] turned out to be 1.34 nM. The EC50 at hGIPR (setting [5]) is 0.0941 nM; on hGCGR (setting [5]), > 9950 nM; on hGCGR (setting [4]), > 9950 nM; on hGLP-1R (0.1% bovine casein and 1.0% human serum albumin), 4.35 nM. The Emax at hGIPR (setting [2]) was 92 ± 1.02%; at hGIPR (setting [3]), 97.6 ± 2.45%.

What is called Ki is the dissociation constant of the complex between target and ligand, obtained from inhibition or displacement. What is called Emax is the size of the effect at its maximum, as opposed to the concentration needed. Usually EC50 stands for the concentration needed to bring the measured effect to its halfway point.
